Laboratory results as given in patent US12606541B2, “PPARg modulators and methods of use” (Eisai R&D Management Co., Ltd., priority 2020, dated 2026).

target: T1, His6-TEV-PPARγ-(234-505) (Homo sapiens, UniProt P37231); test: TR-FRET Assay to Measure Co-R Peptide Recruitment to PPARγ; format: biochemical; conditions: Co-R peptide recruitment to PPARγ; read-out: TR-FRET AC50
T1 construct: The His6-TEV-PPARγ-(234-505) protein for assay was expressed and purified; TEV cleavage site (N); made in house
T1 sequence (P37231 234-505): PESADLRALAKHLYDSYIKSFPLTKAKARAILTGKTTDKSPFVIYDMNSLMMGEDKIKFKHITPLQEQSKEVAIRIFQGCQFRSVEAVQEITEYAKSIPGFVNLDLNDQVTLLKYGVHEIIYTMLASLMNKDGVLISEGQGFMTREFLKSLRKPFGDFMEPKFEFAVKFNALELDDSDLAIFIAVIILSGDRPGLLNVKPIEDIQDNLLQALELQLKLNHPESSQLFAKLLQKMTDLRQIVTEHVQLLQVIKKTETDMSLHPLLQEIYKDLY
How it was run: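 Corepressor recruitment is measured by adding terbium-labeled anti-His antibody and FITC SMRT-ID2 peptide, at 5 and 200 nM final, after a 20-minute room-temperature protein–compound incubation. After one further hour, signal is converted to percent response between DMSO and 500 nM T0070907 wells.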

AC50, > 1 µM:
COc1cc(-c2cc(C(=O)N3CCC(C(=O)NC(C)c4cnccn4)CC3)n[nH]2)c(Cl)cn1 (stereo not drawn) [1-[5-(5-chloro-2-methoxypyridin-4-yl)-1H-pyrazole-3-carbonyl]-N-[1-(pyrazin-2-yl)ethyl]piperidine-4-carboxamide]
COc1cc(-c2cc(C(=O)N3CCC(C(=O)NC4CCC(C)(OC)CC4)CC3)n[nH]2)c(Cl)cn1 (stereo not drawn) [1-[5-(5-chloro-2-methoxypyridin-4-yl)-1H-pyrazole-3-carbonyl]-N-(4-methoxy-4-methylcyclohexyl)piperidine-4-carboxamide]
COc1cc(-c2cc(C(=O)N3CCC(C(=O)NCc4c(C)nn(C)c4C)CC3)n[nH]2)c(Cl)cn1 [1-[5-(5-chloro-2-methoxypyridin-4-yl)-1H-pyrazole-3-carbonyl]-N-[(1,3,5-trimethyl-1H-pyrazol-4-yl)methyl]piperidine-4-carboxamide]
COc1cc(-c2cc(C(=O)N3CCC(C(=O)Nc4cnncc4Cl)CC3)n[nH]2)c(Cl)cn1 [1-[5-(5-chloro-2-methoxypyridin-4-yl)-1H-pyrazole-3-carbonyl]-N-(5-chloropyridazin-4-yl)piperidine-4-carboxamide]
COc1cc(-c2cc(C(=O)N3CCC(C(=O)NCC4(C)COC4)CC3)n[nH]2)c(Cl)cn1 [1-[5-(5-chloro-2-methoxypyridin-4-yl)-1H-pyrazole-3-carbonyl]-N-[(3-methyloxetan-3-yl)methyl]piperidine-4-carboxamide]
COc1cc(-c2cc(C(=O)N3CC[C@@]4(C(=O)NCc5cccc(Cl)c5)C[C@@H]34)n[nH]2)c(Cl)cn1 (relative stereo) [rel-(1R,5R)-2-[5-(5-chloro-2-methoxypyridin-4-yl)-1H-pyrazole-3-carbonyl]-N-[(3-chlorophenyl)methyl]-2-azabicyclo[3.1.0]hexane-5-carboxamide]
COc1cc(-c2cc(C(=O)N3CCC(C(=O)NC(C)c4cnn(C)c4)CC3)n[nH]2)c(Cl)cn1 (stereo not drawn)
O=C(NC1(c2cccc(Cl)c2)CC1)C1CCN(C(=O)c2cc(-c3ccncc3)[nH]n2)CC1 [N-[1-(3-chlorophenyl)cyclopropyl]-1-[5-(pyridin-4-yl)-1H-pyrazole-3-carbonyl]piperidine-4-carboxamide]
O=C(NC1CC1)C1CCN(C(=O)c2cc(-c3ccncc3)[nH]n2)CC1 [N-cyclopropyl-1-[5-(pyridin-4-yl)-1H-pyrazole-3-carbonyl]piperidine-4-carboxamide]
C[C@H](NC(=O)C1CCN(C(=O)c2cc(-c3ccncc3)[nH]n2)CC1)c1ccccc1 [N-[(1S)-1-phenylethyl]-1-[5-(pyridin-4-yl)-1H-pyrazole-3-carbonyl]piperidine-4-carboxamide]
COc1cc(-c2cc(C(=O)N3CCC(C(=O)NCc4c(C)cc(C)[nH]c4=O)CC3)n[nH]2)c(Cl)cn1 [1-[5-(5-chloro-2-methoxypyridin-4-yl)-1H-pyrazole-3-carbonyl]-N-[(4,6-dimethyl-2-oxo-1,2-dihydropyridin-3-yl)methyl]piperidine-4-carboxamide]
COc1cc(-c2cc(C(=O)N3CCC(C(=O)NC4CCN(C(C)=O)C4)CC3)n[nH]2)c(Cl)cn1 (stereo not drawn) [N-(1-acetylpyrrolidin-3-yl)-1-[5-(5-chloro-2-methoxypyridin-4-yl)-1H-pyrazole-3-carbonyl]piperidine-4-carboxamide]
O=C(c1cc(-c2ccncc2)[nH]n1)N1CCC(C(=O)N2CCCCC2)CC1 [4-{3-[4-(piperidine-1-carbonyl)piperidine-1-carbonyl]-1H-pyrazol-5-yl}pyridine]
CCc1csc(CNC(=O)C2CCN(C(=O)c3cc(-c4ccncc4)[nH]n3)CC2)n1 [N-[(4-ethyl-1,3-thiazol-2-yl)methyl]-1-[5-(pyridin-4-yl)-1H-pyrazole-3-carbonyl]piperidine-4-carboxamide]
COc1cc(-c2cc(C(=O)N3CCC(C(=O)NCc4cc(F)ccn4)CC3)n[nH]2)c(Cl)cn1 [1-[5-(5-chloro-2-methoxypyridin-4-yl)-1H-pyrazole-3-carbonyl]-N-[(4-fluoropyridin-2-yl)methyl]piperidine-4-carboxamide]
COc1cc(-c2cc(C(=O)N3CCC(C(=O)NCc4cccc(=O)[nH]4)CC3)n[nH]2)c(Cl)cn1 [1-[5-(5-chloro-2-methoxypyridin-4-yl)-1H-pyrazole-3-carbonyl]-N-[(6-oxo-1,6-dihydropyridin-2-yl)methyl]piperidine-4-carboxamide]
COc1cc(-c2cc(C(=O)N3CCC(C(=O)NCc4noc(C)n4)CC3)n[nH]2)c(Cl)cn1 [1-[5-(5-chloro-2-methoxypyridin-4-yl)-1H-pyrazole-3-carbonyl]-N-[(5-methyl-1,2,4-oxadiazol-3-yl)methyl]piperidine-4-carboxamide]
COc1cc(-c2cc(C(=O)N3CCC(C(=O)NCc4ccon4)CC3)n[nH]2)c(Cl)cn1 [1-[5-(5-chloro-2-methoxypyridin-4-yl)-1H-pyrazole-3-carbonyl]-N-[(1,2-oxazol-3-yl)methyl]piperidine-4-carboxamide]
Cc1ccc(NC(=O)C2CCN(C(=O)c3cc(-c4ccncc4)[nH]n3)CC2)nn1 [N-(6-methylpyridazin-3-yl)-1-[5-(pyridin-4-yl)-1H-pyrazole-3-carbonyl]piperidine-4-carboxamide]
O=C(NCc1ccc(Cl)cc1)C1CCN(C(=O)c2cc(-c3ccncc3)[nH]n2)CC1 [N-[(4-chlorophenyl)methyl]-1-[5-(pyridin-4-yl)-1H-pyrazole-3-carbonyl]piperidine-4-carboxamide]
COc1cc(-c2cc(C(=O)N3CCC(C(=O)NC45COC(C4)C5)CC3)n[nH]2)c(Cl)cn1 [1-[5-(5-chloro-2-methoxypyridin-4-yl)-1H-pyrazole-3-carbonyl]-N-{2-oxabicyclo[2.1.1]hexan-4-yl}piperidine-4-carboxamide]
COc1cc(-c2cc(C(=O)N3CCC(C(=O)NCC4(C#N)CC4)CC3)n[nH]2)c(Cl)cn1 [1-[5-(5-chloro-2-methoxypyridin-4-yl)-1H-pyrazole-3-carbonyl]-N-[(1-cyanocyclopropyl)methyl]piperidine-4-carboxamide]
CCC(CC)NC(=O)C1CCN(C(=O)c2cc(-c3ccncc3)[nH]n2)CC1 [N-(pentan-3-yl)-1-[5-(pyridin-4-yl)-1H-pyrazole-3-carbonyl]piperidine-4-carboxamide]
COc1cc(-c2cc(C(=O)N3CCC[C@@H](C(=O)NCc4cccc(Cl)c4)C3)n[nH]2)c(F)cn1 [(3R)—N-[(3-chlorophenyl)methyl]-1-[5-(5-fluoro-2-methoxypyridin-4-yl)-1H-pyrazole-3-carbonyl]piperidine-3-carboxamide]
COc1cc(-c2cc(C(=O)N3CCC(C(=O)NCc4ncco4)CC3)n[nH]2)c(Cl)cn1 [1-[5-(5-chloro-2-methoxypyridin-4-yl)-1H-pyrazole-3-carbonyl]-N-[(1,3-oxazol-2-yl)methyl]piperidine-4-carboxamide]
O=C(NCc1ccc(Cl)cc1)C1CCN(C(=O)c2cc(-c3cccnc3)[nH]n2)CC1 [N-[(4-chlorophenyl)methyl]-1-[5-(pyridin-3-yl)-1H-pyrazole-3-carbonyl]piperidine-4-carboxamide]
COc1cc(-c2cc(C(=O)N3CCC(C(=O)N[C@H]4CC[C@H](C)CC4)CC3)n[nH]2)ccn1
O=C(c1cc(-c2ccncc2)[nH]n1)N1CCC(C(=O)N2CCN(CC(F)(F)F)CC2)CC1 [1-{1-[5-(pyridin-4-yl)-1H-pyrazole-3-carbonyl]piperidine-4-carbonyl}-4-(2,2,2-trifluoroethyl)piperazine]
COc1ccnc(NC(=O)C2CCN(C(=O)c3cc(-c4ccncc4)[nH]n3)CC2)c1 [N-(4-methoxypyridin-2-yl)-1-[5-(pyridin-4-yl)-1H-pyrazole-3-carbonyl]piperidine-4-carboxamide]
O=C(NCc1ccc(Cl)c(Cl)c1)C1CCN(C(=O)c2cc(-c3cccnc3)[nH]n2)CC1 [N-[(3,4-dichlorophenyl)methyl]-1-[5-(pyridin-3-yl)-1H-pyrazole-3-carbonyl]piperidine-4-carboxamide]
COc1cc(-c2cc(C(=O)N3CCC(C(=O)NCc4ccc5[nH]ncc5c4)CC3)n[nH]2)c(Cl)cn1 [1-[5-(5-chloro-2-methoxypyridin-4-yl)-1H-pyrazole-3-carbonyl]-N-[(1H-indazol-5-yl)methyl]piperidine-4-carboxamide]
CNC(=O)CN1CCN(C(=O)C2CCN(C(=O)c3cc(-c4ccncc4)[nH]n3)CC2)CC1 [N-methyl-2-(4-{1-[5-(pyridin-4-yl)-1H-pyrazole-3-carbonyl]piperidine-4-carbonyl}piperazin-1-yl)acetamide]
O=C(NCc1cc(Cl)ccc1Cl)C1CCN(C(=O)c2cc(-c3ccncc3)[nH]n2)CC1 [N-[(2,5-dichlorophenyl)methyl]-1-[5-(pyridin-4-yl)-1H-pyrazole-3-carbonyl]piperidine-4-carboxamide]
